{
  "source": "paper PMC9975698",
  "about": "“Hyperoside alleviates toxicity of β-amyloid via endoplasmic reticulum-mitochondrial calcium signal transduction cascade in APP/PS1 double transgenic Alzheimer's disease mice” (Redox Biology, 2023)",
  "type_in_all_cases": "cell-based",
  "key": {"HT22 cells [1]": {"tested_on": "HT22 cells", "assay": "Cytoplasmic calcium dynamics (FLIPR Calcium 6)", "settings": "HT22 cells, TG or Aβ 30 μM", "method": "Intracellular Ca^2+ dynamics were determined using the FLIPR Calcium 6 Assay Kit (Molecular Devices) according to the manufacturer's instructions. Briefly, HT22 was housed at 4 × 10^4 cells per well in a black-walled and clear-bottom 96 multi-well plate (Costar, MA, USA) and treated with Calcium 6 reagent for 1 h."}, "HT22 cells [2]": {"tested_on": "HT22 cells", "assay": "Cytotoxicity (MTT) assay", "settings": "aggregated Aβ 30 μM", "method": "Cytotoxicity was assessed using the MTT (5.0 mg/mL) assay. 4 × 10^3 HT22 cells per well were seeded in 96-well plates. After overnight incubation, cells were treated with Aβ aggregates (30 μM) for 48 h with or without the presence of HYP (20–80 μM). Cells were treated with DMSO as a control. Subsequently, MTT (10 μL) was added to each well for 4 h, followed by the addition of 100 μL of lysis buffer (10% SDS in 0.01 mol/L hydrochloric acid) and overnight incubation. The absorbance was measured at 570 nm the next day. The formula was calculated as a percentage of cell viability: Cell viability (%) = A (treatded) / A (control) × 100%. Data were obtained from three independent experiments in triplicate."}, "HT22 cells [3]": {"tested_on": "HT22 cells", "assay": "Fluo-3 detection of calcium ion concentration", "settings": "after addition of Aβ", "method": "2 × 10^5 HT22 cells were incubated in 35 mm confocal dishes for 24 h at 37 °C in a CO^2 incubator. A 5 mM Fluo-3 AM stock solution was diluted with Hanks-Balanced Salt Solution (HBSS) to a 5 μM working solution and then added to the cells for 30 min at 37 °C. HT22 cells were washed three times with HEPES-buffered saline and then incubated in an imaging chamber at 37 °C for an additional 10 min. After the addition of 30 μM of Aβ aggregates in HBSS buffer, changes in cellular Ca^2+ levels were monitored by epifluorescence microscopy (Applied Precision DeltaVision Elite, Applied Precision, Inc., United States) using the real-time mode for tracking Fluo-3 changes for 5 min. The data inspection program provided by DeltaVision software was used to measure the intensity of Fluo-3 fluorescence."}, "HT22 cells [4]": {"tested_on": "HT22 cells", "assay": "Annexin V-PI detection by flow cytometry", "settings": "BAPTA/AM co-treatment, annexin V-PI staining", "method": "Apoptosis was detected with Annexin V staining kit (BD Biosciences, CA, USA). […] The number of apoptotic cells was quantified by flow cytometry (BD FACSAria III, CA, USA). Data acquisition and analysis were performed with CellQuest (BD Biosciences) from three independent experiments."}, "HT22 cells [5]": {"tested_on": "HT22 cells", "assay": "Mitochondrial membrane potential by JC-1", "settings": "CCCP positive control", "source_text": "The mitochondrial membrane potential of HT22 stained with 5,5′,6,6′-tetrachloro-1,1′,3,3′-tetraethylbenzimidazolyl cobalt iodide (JC-1) was observed by laser scanning confocal microscopy."}},
  "data": [
    {"molecule": "C/C=C(/C)C(=O)O[C@H]1C(C)=C2[C@H]([C@@H]1OC(=O)CCCCCCC)[C@@](C)(OC(C)=O)C[C@H](OC(=O)CCC)[C@@]1(O)[C@H]2OC(=O)[C@@]1(C)O", "note": "[TG, Thapsigargin, reference compound]", "values": [
      {"measurement": "dynamic Ca2+ level, inducer alone", "setting": "HT22 cells [1]", "result": "prompt increase in Ca^2+ level"}
    ]},
    {"molecule": "Aβ: Aβ (1–42) peptide incubated at 37 °C for 5 days to form Aβ aggregates [reference compound]", "values": [
      {"measurement": "cell death by aggregated Aβ alone", "setting": "HT22 cells [2]", "result": "induced cell death in HT22"},
      {"measurement": "Fluo-3 fluorescence intensity (Ca2+ level)", "setting": "HT22 cells [3]", "result": "significant increase of fluorescence intensity"}
    ]},
    {"molecule": "CC(=O)OCOC(=O)CN(CC(=O)OCOC(C)=O)c1ccccc1OCCOc1ccccc1N(CC(=O)OCOC(C)=O)CC(=O)OCOC(C)=O", "note": "[BAPTA/AM]", "values": [
      {"measurement": "percentage of Aβ-induced cell death", "setting": "HT22 cells [4]", "result": "decrease the percentage of Aβ-induced cell death"}
    ]},
    {"molecule": "Carbonyl cyanide m-chlorophenyl hydrazine [CCCP, reference compound]", "values": [
      {"measurement": "mitochondrial membrane potential (JC-1)", "setting": "HT22 cells [5]", "result": "loss of membrane potential"}
    ]}
  ]
}
